Test [1] addresses Calcium/calmodulin-dependent protein kinase type II subunit delta (Homo sapiens) (UniProt Q13557). Kind of test: Inhibition of human CAMK2d at 18.6 nM by HotSpot assay relative to control.
Test [2] concerns the target Serine/threonine-protein kinase PAK 3 (Homo sapiens) (UniProt O75914). Put plainly: Inhibition of human PAK3 at 18.6 nM by HotSpot assay relative to control.
The target of test [3] is Platelet-derived growth factor receptor alpha (Homo sapiens) (UniProt P16234). Put plainly: Inhibition of human PDGFRa at 18.6 nM by HotSpot assay relative to control.
In test [4] the target is T1, Serine/threonine-protein kinase BRSK1 (Homo sapiens) (UniProt Q8TDC3).
T1 sequence (whole entry): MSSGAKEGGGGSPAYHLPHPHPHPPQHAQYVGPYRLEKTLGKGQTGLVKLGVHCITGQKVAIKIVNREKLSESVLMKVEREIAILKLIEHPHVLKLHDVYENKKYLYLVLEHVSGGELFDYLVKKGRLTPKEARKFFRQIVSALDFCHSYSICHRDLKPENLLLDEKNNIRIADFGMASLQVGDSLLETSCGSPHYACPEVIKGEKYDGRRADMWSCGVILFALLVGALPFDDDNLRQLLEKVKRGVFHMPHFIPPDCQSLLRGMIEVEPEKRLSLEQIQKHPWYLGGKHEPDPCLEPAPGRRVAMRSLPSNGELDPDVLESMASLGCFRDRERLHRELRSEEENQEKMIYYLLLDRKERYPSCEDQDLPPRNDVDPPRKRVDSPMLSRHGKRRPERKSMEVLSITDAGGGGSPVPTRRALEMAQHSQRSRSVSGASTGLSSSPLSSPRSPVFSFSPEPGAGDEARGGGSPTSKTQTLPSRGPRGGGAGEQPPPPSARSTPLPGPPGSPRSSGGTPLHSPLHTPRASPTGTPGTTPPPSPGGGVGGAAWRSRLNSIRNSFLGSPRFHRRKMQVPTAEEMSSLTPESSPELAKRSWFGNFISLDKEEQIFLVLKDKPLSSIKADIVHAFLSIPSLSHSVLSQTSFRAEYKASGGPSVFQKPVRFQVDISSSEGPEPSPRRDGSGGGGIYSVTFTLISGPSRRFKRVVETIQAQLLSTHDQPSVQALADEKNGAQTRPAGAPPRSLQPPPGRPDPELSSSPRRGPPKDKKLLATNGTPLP
Put plainly: Inhibition of human BRSK1 at 1.82 nM by HotSpot assay relative to control.

For test [5], the target named is Casein kinase I isoform delta (Homo sapiens) (UniProt P48730). Put plainly: Inhibition of human CK1d at 1.82 nM by HotSpot assay relative to control.
Test [6] concerns the target T2, Serine/threonine-protein kinase 17A (Homo sapiens) (UniProt Q9UEE5).
T2 sequence (whole entry): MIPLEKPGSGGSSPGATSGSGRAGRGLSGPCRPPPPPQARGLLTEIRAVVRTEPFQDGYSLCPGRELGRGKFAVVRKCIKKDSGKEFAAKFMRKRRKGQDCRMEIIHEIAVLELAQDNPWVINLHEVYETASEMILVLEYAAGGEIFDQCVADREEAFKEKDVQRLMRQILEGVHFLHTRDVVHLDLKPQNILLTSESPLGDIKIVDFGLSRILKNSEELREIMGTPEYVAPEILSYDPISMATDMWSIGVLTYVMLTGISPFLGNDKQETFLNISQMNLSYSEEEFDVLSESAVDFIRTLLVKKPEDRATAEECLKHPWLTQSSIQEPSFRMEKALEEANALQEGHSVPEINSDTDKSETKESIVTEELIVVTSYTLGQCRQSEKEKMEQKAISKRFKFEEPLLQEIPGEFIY
Kind of test: Inhibition of human DRAK1 at 1.82 nM by HotSpot assay relative to control.

Test [7] concerns the target Dual specificity tyrosine-phosphorylation-regulated kinase 1B (Homo sapiens) (UniProt Q9Y463). Put plainly: Inhibition of human DYRK1B at 1.82 nM by HotSpot assay relative to control.
Test [8] has as its target T3, Rhodopsin kinase GRK7 (Homo sapiens) (UniProt Q8WTQ7).
T3 sequence (whole entry): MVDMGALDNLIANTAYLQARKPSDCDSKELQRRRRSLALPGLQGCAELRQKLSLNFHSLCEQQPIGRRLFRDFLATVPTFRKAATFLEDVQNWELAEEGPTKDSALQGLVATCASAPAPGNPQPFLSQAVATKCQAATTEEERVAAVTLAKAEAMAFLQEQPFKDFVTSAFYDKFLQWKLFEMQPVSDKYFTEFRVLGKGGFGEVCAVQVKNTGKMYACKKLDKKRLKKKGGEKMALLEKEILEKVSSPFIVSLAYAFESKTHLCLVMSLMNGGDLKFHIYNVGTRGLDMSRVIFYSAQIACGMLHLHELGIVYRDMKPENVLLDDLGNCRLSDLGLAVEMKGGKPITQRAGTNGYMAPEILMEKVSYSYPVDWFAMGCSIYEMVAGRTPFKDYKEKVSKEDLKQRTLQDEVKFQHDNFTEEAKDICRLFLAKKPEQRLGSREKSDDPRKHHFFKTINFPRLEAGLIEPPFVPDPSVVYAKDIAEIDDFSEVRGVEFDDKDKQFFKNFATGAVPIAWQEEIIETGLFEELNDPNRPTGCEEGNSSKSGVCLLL
Put plainly: Inhibition of human GRK7 at 1.82 nM by HotSpot assay relative to control.

The target of test [9] is Serine/threonine-protein kinase MARK1 (Homo sapiens) (UniProt Q9P0L2). Kind of test: Inhibition of human MARK1 at 1.82 nM by HotSpot assay relative to control.
The target in test [10] is T4, cGMP-dependent protein kinase 1 (Homo sapiens) (UniProt Q13976).
T4 sequence (whole entry): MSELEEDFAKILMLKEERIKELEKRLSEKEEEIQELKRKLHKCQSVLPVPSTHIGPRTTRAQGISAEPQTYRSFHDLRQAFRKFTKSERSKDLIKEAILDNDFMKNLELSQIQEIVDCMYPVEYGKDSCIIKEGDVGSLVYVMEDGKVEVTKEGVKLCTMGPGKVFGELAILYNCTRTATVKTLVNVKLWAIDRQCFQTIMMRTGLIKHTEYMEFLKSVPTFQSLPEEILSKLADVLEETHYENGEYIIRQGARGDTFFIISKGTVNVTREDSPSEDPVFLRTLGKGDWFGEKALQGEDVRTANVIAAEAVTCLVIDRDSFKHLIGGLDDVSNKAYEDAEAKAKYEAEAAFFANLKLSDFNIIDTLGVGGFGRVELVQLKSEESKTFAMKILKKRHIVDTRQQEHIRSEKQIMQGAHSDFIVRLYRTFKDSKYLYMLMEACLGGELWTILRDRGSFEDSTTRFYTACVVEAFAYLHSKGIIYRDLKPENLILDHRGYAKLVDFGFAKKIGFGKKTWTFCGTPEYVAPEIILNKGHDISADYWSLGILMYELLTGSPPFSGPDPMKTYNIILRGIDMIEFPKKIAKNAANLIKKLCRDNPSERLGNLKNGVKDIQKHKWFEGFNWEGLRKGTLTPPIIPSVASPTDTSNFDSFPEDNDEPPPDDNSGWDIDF
Kind of test: Inhibition of human PKG1b at 1.82 nM by HotSpot assay relative to control.

Sequence of Calcium/calmodulin-dependent protein kinase type II subunit delta (Homo sapiens) (Q13557 whole entry): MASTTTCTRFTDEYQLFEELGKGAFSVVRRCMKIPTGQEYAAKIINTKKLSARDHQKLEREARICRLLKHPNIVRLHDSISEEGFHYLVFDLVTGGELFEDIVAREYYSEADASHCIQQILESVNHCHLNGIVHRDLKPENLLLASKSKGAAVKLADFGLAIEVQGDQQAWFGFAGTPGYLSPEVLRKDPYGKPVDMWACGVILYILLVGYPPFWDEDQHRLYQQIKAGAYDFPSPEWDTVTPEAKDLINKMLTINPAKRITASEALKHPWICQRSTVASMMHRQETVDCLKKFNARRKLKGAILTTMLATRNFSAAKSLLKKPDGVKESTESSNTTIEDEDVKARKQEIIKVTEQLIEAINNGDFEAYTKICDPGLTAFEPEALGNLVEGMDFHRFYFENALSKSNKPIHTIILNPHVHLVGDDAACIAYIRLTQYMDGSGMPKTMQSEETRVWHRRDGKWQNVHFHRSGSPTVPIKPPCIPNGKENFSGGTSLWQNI
Sequence of Serine/threonine-protein kinase MARK1 (Homo sapiens) (Q9P0L2 whole entry, looked up): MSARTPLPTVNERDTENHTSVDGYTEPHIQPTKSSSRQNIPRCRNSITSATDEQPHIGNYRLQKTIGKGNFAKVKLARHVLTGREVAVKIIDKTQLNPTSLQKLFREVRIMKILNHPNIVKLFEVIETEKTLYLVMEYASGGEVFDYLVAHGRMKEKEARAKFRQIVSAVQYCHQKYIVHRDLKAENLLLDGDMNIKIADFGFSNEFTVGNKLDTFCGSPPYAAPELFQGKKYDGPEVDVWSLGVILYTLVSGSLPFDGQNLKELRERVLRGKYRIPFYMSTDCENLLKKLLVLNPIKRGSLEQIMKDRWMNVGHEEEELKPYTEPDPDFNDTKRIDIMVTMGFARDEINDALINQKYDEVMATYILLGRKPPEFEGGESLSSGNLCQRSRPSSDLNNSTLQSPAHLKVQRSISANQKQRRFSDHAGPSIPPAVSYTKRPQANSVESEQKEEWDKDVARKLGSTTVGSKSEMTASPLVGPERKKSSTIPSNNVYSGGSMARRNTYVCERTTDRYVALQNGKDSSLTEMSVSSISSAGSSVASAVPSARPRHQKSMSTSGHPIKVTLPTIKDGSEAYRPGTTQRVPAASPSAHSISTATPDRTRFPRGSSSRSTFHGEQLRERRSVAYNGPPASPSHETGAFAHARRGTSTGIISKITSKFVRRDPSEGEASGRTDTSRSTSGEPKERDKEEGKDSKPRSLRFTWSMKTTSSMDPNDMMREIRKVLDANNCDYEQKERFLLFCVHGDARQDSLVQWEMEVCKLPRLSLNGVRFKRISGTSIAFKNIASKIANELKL
Sequence of Serine/threonine-protein kinase PAK 3 (Homo sapiens) (O75914 whole entry, looked up): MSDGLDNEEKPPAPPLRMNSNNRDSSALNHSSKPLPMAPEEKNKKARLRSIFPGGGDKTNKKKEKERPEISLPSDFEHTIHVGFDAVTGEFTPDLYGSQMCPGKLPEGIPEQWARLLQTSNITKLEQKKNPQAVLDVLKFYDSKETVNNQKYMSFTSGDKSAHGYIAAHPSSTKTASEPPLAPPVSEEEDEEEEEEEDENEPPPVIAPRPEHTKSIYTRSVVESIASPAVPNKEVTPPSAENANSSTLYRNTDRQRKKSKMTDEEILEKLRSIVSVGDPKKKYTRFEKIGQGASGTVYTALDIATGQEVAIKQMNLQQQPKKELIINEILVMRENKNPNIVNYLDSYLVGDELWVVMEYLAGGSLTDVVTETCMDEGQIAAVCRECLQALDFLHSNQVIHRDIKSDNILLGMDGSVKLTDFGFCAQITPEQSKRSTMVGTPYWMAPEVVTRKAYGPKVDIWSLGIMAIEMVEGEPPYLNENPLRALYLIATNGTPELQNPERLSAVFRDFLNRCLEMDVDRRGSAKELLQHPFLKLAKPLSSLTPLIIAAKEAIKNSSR
Sequence of Platelet-derived growth factor receptor alpha (Homo sapiens) (P16234 whole entry): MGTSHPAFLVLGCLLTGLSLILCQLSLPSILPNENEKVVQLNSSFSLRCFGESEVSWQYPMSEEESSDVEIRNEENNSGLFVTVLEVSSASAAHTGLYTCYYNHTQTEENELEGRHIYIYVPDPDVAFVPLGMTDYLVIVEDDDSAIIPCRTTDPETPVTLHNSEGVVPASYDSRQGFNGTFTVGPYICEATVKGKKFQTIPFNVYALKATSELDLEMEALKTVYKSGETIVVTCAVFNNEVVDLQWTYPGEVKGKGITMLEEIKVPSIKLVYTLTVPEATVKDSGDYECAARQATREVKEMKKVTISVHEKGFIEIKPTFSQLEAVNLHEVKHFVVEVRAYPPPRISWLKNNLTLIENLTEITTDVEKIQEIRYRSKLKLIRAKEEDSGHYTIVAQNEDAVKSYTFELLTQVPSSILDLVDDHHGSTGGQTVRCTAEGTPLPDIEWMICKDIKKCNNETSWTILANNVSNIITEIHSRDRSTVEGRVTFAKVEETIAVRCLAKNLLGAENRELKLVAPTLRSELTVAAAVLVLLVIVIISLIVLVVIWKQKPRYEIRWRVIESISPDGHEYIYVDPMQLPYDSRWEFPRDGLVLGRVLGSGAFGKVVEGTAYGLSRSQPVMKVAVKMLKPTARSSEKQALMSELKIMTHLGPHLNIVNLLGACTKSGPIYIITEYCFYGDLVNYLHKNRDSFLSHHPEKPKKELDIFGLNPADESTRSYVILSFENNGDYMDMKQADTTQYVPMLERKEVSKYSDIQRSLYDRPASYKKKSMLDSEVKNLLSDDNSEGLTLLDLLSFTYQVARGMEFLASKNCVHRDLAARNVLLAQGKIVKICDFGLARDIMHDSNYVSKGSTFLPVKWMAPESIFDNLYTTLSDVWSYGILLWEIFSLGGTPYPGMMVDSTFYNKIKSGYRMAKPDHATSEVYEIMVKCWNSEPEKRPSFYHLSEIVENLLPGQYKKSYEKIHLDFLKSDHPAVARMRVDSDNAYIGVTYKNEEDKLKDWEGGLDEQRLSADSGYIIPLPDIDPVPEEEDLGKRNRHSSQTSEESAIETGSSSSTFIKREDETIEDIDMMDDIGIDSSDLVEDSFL
Sequence of Casein kinase I isoform delta (Homo sapiens) (P48730 whole entry, looked up, canonical isoform): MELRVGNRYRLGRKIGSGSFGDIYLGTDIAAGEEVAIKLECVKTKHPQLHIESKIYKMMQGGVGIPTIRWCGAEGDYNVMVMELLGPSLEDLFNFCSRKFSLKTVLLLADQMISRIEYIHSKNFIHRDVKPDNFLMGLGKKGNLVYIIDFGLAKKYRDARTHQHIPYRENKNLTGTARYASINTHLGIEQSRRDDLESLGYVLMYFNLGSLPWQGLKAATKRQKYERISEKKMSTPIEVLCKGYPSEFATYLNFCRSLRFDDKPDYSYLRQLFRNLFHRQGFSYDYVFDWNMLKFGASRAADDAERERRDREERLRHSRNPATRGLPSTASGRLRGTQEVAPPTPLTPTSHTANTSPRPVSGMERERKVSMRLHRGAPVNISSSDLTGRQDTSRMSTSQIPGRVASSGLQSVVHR
Sequence of Dual specificity tyrosine-phosphorylation-regulated kinase 1B (Homo sapiens) (Q9Y463 whole entry, looked up): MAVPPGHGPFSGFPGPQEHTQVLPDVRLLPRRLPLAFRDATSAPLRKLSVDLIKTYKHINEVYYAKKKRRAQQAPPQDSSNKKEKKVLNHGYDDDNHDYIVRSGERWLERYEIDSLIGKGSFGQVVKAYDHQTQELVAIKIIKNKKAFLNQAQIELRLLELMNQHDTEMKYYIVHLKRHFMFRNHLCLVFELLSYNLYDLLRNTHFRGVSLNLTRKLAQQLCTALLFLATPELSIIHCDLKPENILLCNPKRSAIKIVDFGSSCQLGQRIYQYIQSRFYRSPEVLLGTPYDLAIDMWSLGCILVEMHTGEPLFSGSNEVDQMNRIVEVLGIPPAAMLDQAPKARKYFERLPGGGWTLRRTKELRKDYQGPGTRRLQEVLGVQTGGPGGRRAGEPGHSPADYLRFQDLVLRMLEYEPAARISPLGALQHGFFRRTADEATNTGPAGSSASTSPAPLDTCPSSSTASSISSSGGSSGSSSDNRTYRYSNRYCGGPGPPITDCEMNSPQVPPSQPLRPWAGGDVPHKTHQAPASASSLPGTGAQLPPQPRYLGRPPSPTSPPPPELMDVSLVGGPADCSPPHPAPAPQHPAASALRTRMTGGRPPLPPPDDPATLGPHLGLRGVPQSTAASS

By inhibition is commonly meant the change of the read-out against control, counted positive when it falls. `C[C@]1(O)C[C@@H](c2nc(-c3ccc4ccc(-c5ccccc5)nc4c3)c3c(N)nccn32)C1`: the results for the inhibition in test [1], in test [2] and in test [3] were 0.37%, 2.16% and 2.05%, respectively.
Turning to `C[C@@]1(C(=O)Nc2ccc(F)nc2)CCCN1c1nc(Nc2cc(C3CC3)n[nH]2)c2cccn2n1`, the inhibition is -0.42% in test [4]; 0.92% in test [5]; 2.5% in [6]; -1.57% in [7]; 4.43% in test [8]; -3.41% in test [9]. In addition, the inhibition in test [10] is -2.16%.
